Measurements as given in ChEMBL document CHEMBL3596089, “Synthesis and characterization of novel oxazines and demonstration that they specifically target cyclooxygenase 2” (Bioorg Med Chem Lett, 2015).

Legend:
[1] = target: Prostaglandin G/H synthase 1 (Homo sapiens, UniProt P23219); assay: Inhibition of COX1 (unknown origin)
[2] = target: T1, Prostaglandin G/H synthase 2 (Homo sapiens, UniProt P35354); assay: Inhibition of COX2 (unknown origin)
T1 sequence (P35354 whole entry): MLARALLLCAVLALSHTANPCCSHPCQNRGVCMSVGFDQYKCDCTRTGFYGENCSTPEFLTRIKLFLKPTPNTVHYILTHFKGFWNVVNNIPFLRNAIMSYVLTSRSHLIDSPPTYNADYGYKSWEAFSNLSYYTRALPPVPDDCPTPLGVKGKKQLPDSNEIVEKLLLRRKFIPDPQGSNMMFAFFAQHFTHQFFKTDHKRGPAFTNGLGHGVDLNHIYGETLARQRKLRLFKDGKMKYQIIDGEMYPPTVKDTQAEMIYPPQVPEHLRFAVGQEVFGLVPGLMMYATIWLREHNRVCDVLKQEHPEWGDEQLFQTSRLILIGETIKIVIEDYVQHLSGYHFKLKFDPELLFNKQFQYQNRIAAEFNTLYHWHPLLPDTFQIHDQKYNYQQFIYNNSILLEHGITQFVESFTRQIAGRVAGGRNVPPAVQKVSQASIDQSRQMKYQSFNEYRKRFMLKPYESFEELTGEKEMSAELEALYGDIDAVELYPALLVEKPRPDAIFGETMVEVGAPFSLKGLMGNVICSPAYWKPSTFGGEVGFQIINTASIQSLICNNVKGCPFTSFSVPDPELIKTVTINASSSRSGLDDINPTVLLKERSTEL

Sequence of Prostaglandin G/H synthase 1 (P23219 whole entry): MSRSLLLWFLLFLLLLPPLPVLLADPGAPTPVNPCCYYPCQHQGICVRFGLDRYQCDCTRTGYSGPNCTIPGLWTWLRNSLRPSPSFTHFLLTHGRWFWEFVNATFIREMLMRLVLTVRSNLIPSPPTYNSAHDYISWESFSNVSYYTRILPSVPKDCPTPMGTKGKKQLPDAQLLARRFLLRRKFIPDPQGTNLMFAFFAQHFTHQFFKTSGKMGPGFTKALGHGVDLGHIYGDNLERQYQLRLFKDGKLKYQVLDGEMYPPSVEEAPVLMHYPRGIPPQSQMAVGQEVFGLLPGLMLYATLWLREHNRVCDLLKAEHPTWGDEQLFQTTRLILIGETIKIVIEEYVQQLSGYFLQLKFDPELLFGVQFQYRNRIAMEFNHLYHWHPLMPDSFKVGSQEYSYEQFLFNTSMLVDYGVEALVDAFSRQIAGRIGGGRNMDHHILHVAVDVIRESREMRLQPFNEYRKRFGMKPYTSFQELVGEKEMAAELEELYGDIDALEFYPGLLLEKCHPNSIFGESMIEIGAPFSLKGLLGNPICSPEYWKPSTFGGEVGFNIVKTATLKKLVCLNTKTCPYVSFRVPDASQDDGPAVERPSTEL

Row | SMILES | IC50 [1] | IC50 [2]
1 | Fc1ccc2c(C3CCN(CC4=NO[C@@H]5CCCC[C@@H]5[C@H]4c4ccccc4)CC3)noc2c1 | 42.8 µM | 4.7 µM
2 | COc1ccc(N2CCN(CC3=NOC(C)(C)CC3c3ccccc3)CC2)cc1 (stereo not given) | 50.6 µM | 2.6 µM
3 | c1ccc([C@H]2C(Cn3c4ccccc4c4ccccc43)=NO[C@@H]3CCCC[C@H]23)cc1 | 59.9 µM | 9.9 µM
4 | CC1(C)CC(c2ccc(Cl)cc2)C(Cn2c3ccccc3c3ccccc32)=NO1 (stereo not given) | 40.8 µM | 3.9 µM
5 | CC1(C)CC(c2ccc(Cl)cc2)C(CN2CCC(c3noc4cc(F)ccc34)CC2)=NO1 (stereo not given) | 40.1 µM | 4.1 µM
6 | COc1ccc(N2CCN(CC3=NO[C@@H]4CCCC[C@@H]4[C@H]3c3ccccc3)CC2)cc1 | 35.8 µM | 1.8 µM
7 | COc1ccc([C@H]2C(CN3CCN(c4ccc(OC)cc4)CC3)=NO[C@@H]3CCCC[C@H]23)cc1 | 40.4 µM | 1.7 µM
8 | COc1ccc([C@H]2C(Cn3c4ccccc4c4ccccc43)=NO[C@@H]3CCCC[C@H]23)cc1 | 50.8 µM | 5.9 µM
9 | CC1(C)CC(c2ccccc2)C(CN2CCN(c3cccc(Cl)c3Cl)CC2)=NO1 (stereo not given) | 54.9 µM | 6.8 µM
10 | CC1(C)CC(c2ccccc2)C(CN2CCC(c3noc4cc(F)ccc34)CC2)=NO1 (stereo not given) | 39.8 µM | 10.5 µM
